Values joined by “and” are separate entries in the source; they are usually repeats but may differ in a detail not shown here. Equal values may be shown once. Toxic doses and inconclusive results are not listed. Rule as the data show it: active = T/C of 150% or more; inactive = T/C below 125%.
Tested on: L1210 leukemia ip in BDF1 mice, survival T/C
Assay: NCI In Vivo Anticancer Drug Screen. Data for tumor model L1210 Leukemia (intraperitoneal) in B6D2F1 (BDF1) mice
Conditions: endpoint: mean survival time, higher = longer survival
Method in brief: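 Read-out is survival time, reported as the treated-group measurement over the vehicle-control measurement.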

[1] = dose: 25.0 mg/kg/injection, schedule: Q01DX009 (ip), vehicle: water
[2] = dose: 50.0 mg/kg/injection, schedule: Q01DX009 (ip), vehicle: water
[3] = dose: 100.0 mg/kg/injection, schedule: Q04DX003 (ip), vehicle: water
[4] = dose: 100.0 mg/kg/injection, schedule: Q01DX009 (ip), vehicle: Klucel (hydroxypropylcellulose) (HPC)
[5] = dose: 200.0 mg/kg/injection, schedule: Q01DX009 (ip), vehicle: Klucel (hydroxypropylcellulose) (HPC)
[6] = dose: 50.0 mg/kg/injection, schedule: Q01DX001 (ip), vehicle: saline
[7] = dose: 50.0 mg/kg/injection, schedule: Q01DX009 (ip), vehicle: saline
[8] = dose: 100.0 mg/kg/injection, schedule: Q01DX001 (ip), vehicle: saline
[9] = dose: 100.0 mg/kg/injection, schedule: Q01DX009 (ip), vehicle: saline
[10] = dose: 100.0 mg/kg/injection, schedule: Q04DX002 (ip), vehicle: saline
[11] = dose: 100.0 mg/kg/injection, schedule: Q04DX003 (ip), vehicle: saline
[12] = dose: 200.0 mg/kg/injection, schedule: Q01DX001 (ip), vehicle: saline
[13] = dose: 200.0 mg/kg/injection, schedule: Q01DX009 (ip), vehicle: saline
[14] = dose: 200.0 mg/kg/injection, schedule: Q04DX003 (ip), vehicle: saline
[15] = dose: 100.0 mg/kg/injection, schedule: Q01DX001 (ip), vehicle: carboxymethylcellulose (CMC)
[16] = dose: 400.0 mg/kg/injection, schedule: Q01DX001 (ip), vehicle: carboxymethylcellulose (CMC)
[17] = dose: 100.0 mg/kg/injection, schedule: Q04DX003 (ip), vehicle: saline with Tween-80
[18] = dose: 200.0 mg/kg/injection, schedule: Q04DX003 (ip), vehicle: saline with Tween-80
[19] = dose: 100.0 mg/kg/injection, schedule: Q04DX003 (ip), vehicle: Klucel (hydroxypropylcellulose) (HPC)
[20] = dose: 200.0 mg/kg/injection, schedule: Q04DX003 (ip), vehicle: Klucel (hydroxypropylcellulose) (HPC)
[21] = dose: 400.0 mg/kg/injection, schedule: Q04DX003 (ip), vehicle: saline

Measured: T/C

CCSc1ncc2cnccn12
inactive: [1] 91 % of control | [2] 100 % of control | [3] 91 % of control

O=C(Nc1ccc(F)c([N+](=O)[O-])c1)Nc1cc(C(F)(F)F)ccc1Cl
inactive: [4] 101 % of control | [5] 90 % of control | dose: 400.0 mg/kg/injection, schedule: Q01DX009 (ip), vehicle: Klucel (hydroxypropylcellulose) (HPC) 89 % of control

CCOC(=O)NCCCCCCNC(=O)OCC
inactive: dose: 50.0 mg/kg/injection, schedule: Q01DX009 (ip), vehicle: saline with Tween-80 97 % of control | dose: 100.0 mg/kg/injection, schedule: Q01DX009 (ip), vehicle: saline with Tween-80 95 % of control | dose: 200.0 mg/kg/injection, schedule: Q01DX009 (ip), vehicle: saline with Tween-80 95 % of control

C[n+]1ccccc1C=O
inactive: [6] 100 % of control | [7] 102 % of control and 103 % of control | dose: 50.0 mg/kg/injection, schedule: Q04DX003 (ip), vehicle: saline 98 % of control | [8] 100 % of control | [9] 104 % of control and 113 % of control | [10] 97 % of control and 105 % of control | [11] 88 % of control | [12] 103 % of control | [13] 102 % of control and 109 % of control | dose: 200.0 mg/kg/injection, schedule: Q04DX002 (ip), vehicle: saline 102 % of control and 105 % of control | [14] 107 % of control | dose: 400.0 mg/kg/injection, schedule: Q04DX002 (ip), vehicle: saline 101 % of control

CC(C)CC(NC(=O)OC(C)(C)C)C(=O)NC(Cc1c[nH]c2ccccc12)C(=O)NN (stereo not drawn)
inactive: [15] 88 % of control | [16] 94 % of control

Cc1cccc(NC(=O)Nc2cccc(Cl)c2Cl)n1
inactive: [4] 92 % of control | dose: 100.0 mg/kg/injection, schedule: Q04DX002 (ip), vehicle: Klucel (hydroxypropylcellulose) (HPC) 89 % of control | [5] 92 % of control | dose: 200.0 mg/kg/injection, schedule: Q04DX002 (ip), vehicle: Klucel (hydroxypropylcellulose) (HPC) 92 % of control | dose: 400.0 mg/kg/injection, schedule: Q04DX002 (ip), vehicle: Klucel (hydroxypropylcellulose) (HPC) 103 % of control

CCC(C)C(CCN(C)CC)(CNC(=O)CN(CC)CC)c1cccc2ccccc12 (stereo not drawn)
inactive: dose: 50.0 mg/kg/injection, schedule: Q04DX002 (ip), vehicle: saline 106 % of control | [9] 96 % of control | [10] 97 % of control

COc1ccc(C(=O)Nc2ccc(Br)cc2)cc1
inactive: [17] 97 % of control | [18] 95 % of control | dose: 400.0 mg/kg/injection, schedule: Q04DX003 (ip), vehicle: saline with Tween-80 105 % of control

CC(C)C1=CC(=O)OC1C(O)C(C)C1CCC2C3CC=C4CC(O)CCC4(C)C3CCC12C (stereo not drawn)
inactive: [19] 102 % of control | [20] 96 % of control | dose: 400.0 mg/kg/injection, schedule: Q04DX003 (ip), vehicle: Klucel (hydroxypropylcellulose) (HPC) 94 % of control

CCOC(OCC)C(=O)NNC(C)C
inactive: dose: 25.0 mg/kg/injection, schedule: Q01DX009 (ip), vehicle: saline 95 % of control | [7] 97 % of control | [9] 108 % of control

COC(=O)c1ccc(=O)oc1
inactive: dose: 50.0 mg/kg/injection, schedule: Q01DX009 (ip), vehicle: gum acacia 105 % of control | dose: 100.0 mg/kg/injection, schedule: Q01DX009 (ip), vehicle: gum acacia 100 % of control | dose: 100.0 mg/kg/injection, schedule: Q04DX003 (ip), vehicle: gum acacia 98 % of control | dose: 200.0 mg/kg/injection, schedule: Q01DX009 (ip), vehicle: gum acacia 88 % of control | dose: 200.0 mg/kg/injection, schedule: Q04DX003 (ip), vehicle: gum acacia 100 % of control

CCc1csc(=S)[nH]1
inactive: dose: 50.0 mg/kg/injection, schedule: Q01DX009 (ip), vehicle: Klucel (hydroxypropylcellulose) (HPC) 98 % of control | [4] 93 % of control | [19] 98 % of control | [5] 96 % of control | [20] 98 % of control

CCCCCCCCCCCCCCCCCC[As](=O)(O)CCCCCCCCCCCCCCCCCC
inactive: [6] 97 % of control | [8] 101 % of control | [12] 91 % of control | dose: 400.0 mg/kg/injection, schedule: Q01DX001 (ip), vehicle: saline 101 % of control

COc1cc2c[n+](C)c3c4cc(OC)c(OC)cc4ccc3c2cc1OC
inactive: dose: 9.6 mg/kg/injection, schedule: Q01DX009 (ip), vehicle: saline with Tween-80 119 % of control | dose: 12.5 mg/kg/injection, schedule: Q01DX009 (ip), vehicle: water 111 % of control | dose: 14.0 mg/kg/injection, schedule: Q01DX009 (ip), vehicle: saline with Tween-80 115 % of control | [1] 110 % of control and 122 % of control | [2] 109 % of control and 114 % of control | [9] 123 % of control | [11] 100 % of control | [3] 112 % of control | dose: 180.0 mg/kg/injection, schedule: Q01DX009 (ip), vehicle: saline 109 % of control | [14] 104 % of control | dose: 200.0 mg/kg/injection, schedule: Q04DX003 (ip), vehicle: water 113 % of control | dose: 240.0 mg/kg/injection, schedule: Q04DX003 (ip), vehicle: water 112 % of control | [21] 110 % of control | dose: 400.0 mg/kg/injection, schedule: Q04DX003 (ip), vehicle: water 107 % of control

Nc1cccnn1
inactive: [9] 99 % of control | [11] 109 % of control | [13] 99 % of control | [14] 117 % of control | dose: 400.0 mg/kg/injection, schedule: Q01DX009 (ip), vehicle: saline 103 % of control | [21] 120 % of control

O=C(C(Sc1ccccc1)=P(c1ccccc1)(c1ccccc1)c1ccccc1)c1ccccc1
inactive: [17] 90 % of control | [18] 90 % of control

COc1c(OCC=C(C)C)cc2c(c1O)c(=O)c1ccccc1n2C
inactive: [15] 100 % of control | dose: 200.0 mg/kg/injection, schedule: Q01DX001 (ip), vehicle: carboxymethylcellulose (CMC) 93 % of control | [16] 98 % of control

Cc1ccc2c(c1)CCCN2C
inactive: [7] 96 % of control | [9] 95 % of control | [11] 100 % of control | [14] 94 % of control

Reference: PubChem BioAssay AID248 (DTP/NCI, 2004)
